# Source: US20180186815A1, “PHARMACEUTICAL COMPOSITIONS, METHODS FOR THEIR PREPARATION AND THEIR USE IN THE TREATMENT OF CANCER” (Urifer Ltd., priority 2016, published 2018)
# Read-outs that look alike come from different tables or passages of the source.
# What was measured:
# Assay type in all cases: cell-based
# [1] = test system: colon cancer cell line HT29; test: Growth profile / viability of HT29 colon cancer cells, XTT test; conditions: Homo sapiens, HT-29, 96 h, Control DMSO = 100%, read-out: percentage of viable cells, HT29
# Procedure, shortened: (§1)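 Cells were seeded and grown untreated overnight, then exposed to compounds at a final 5 μM (0.4% v/v DMSO). Untreated and 0.4% DMSO-only cells were the controls. Percent viable cells was measured by XTT 96 h after compound addition.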
# [2] = test system: colon cancer cell line HCT 116; test: Growth profile / viability of HCT116 colon cancer cells, XTT test; conditions: Homo sapiens, HCT-116, 96 h, Control DMSO = 100%, read-out: percentage of viable cells, HCT116
# Procedure, shortened: as §1
# [3] = Viability of FS non malignant fibroblastic cells, XTT test; conditions: FS cells (non-malignant fibroblastic cell line), Control DMSO = 100%, read-out: percentage of viable cells, FS
# Procedure, shortened: as §1
# [4] = test system: colon cancer cell line RKO; test: Growth profile / viability of RKO colon cancer cells, XTT test; conditions: 96 h, Control DMSO = 100%, read-out: percentage of viable cells, RKO
# Procedure, shortened: as §1
Compound,viability at 5 µM ([1]; first HT29 column) [%],viability at 5 µM ([1]; second HT29 column) [%],viability at 5 µM ([2]; first HCT116 column) [%],viability at 5 µM ([2]; second HCT116 column) [%],"viability at 96 h, 5 µM ([3]; first FS column) [%]","viability at 96 h, 5 µM ([3]; second FS column) [%]",viability at 5 µM ([4]; first RKO column) [%],viability at 5 µM ([4]; second RKO column) [%]
"CC(C)c1ccc(-c2cn3nc(N4CCC(C(=O)N5CCN(CCN(C)C)CC5)CC4)sc3n2)cc1 [Compound Z522-0229, {2-[4-({1-[6-(4-isopropylphenyl)imidazo[2,1-b][1,3,4]thiadiazol-2-yl]piperidin-4-yl}carbonyl)piperazin-1-yl]ethyl} dimethylamine]",74,77,87,99,79,101,45,47
"Cc1ccc(C)n1CCN1CCN(C(=O)C2CCN(c3nn4cc(-c5ccc(C(C)C)cc5)nc4s3)CC2)CC1 [Compound Z522-0232, 2-[4-({4-[2-(2,5-dimethyl-1H-pyrrol-1-yl)ethyl]piperazin-1-yl}carbonyl)piperidin-1-yl]-6-(4-isopropylphenyl) imidazo[2,1-b][1,3,4]thiadiazole]",20,22,79,68,106,93,35,38
"CC(C)c1ccc(-c2cn3nc(N4CCC(C(=O)N5CCCCC5CCN5CCCCC5)CC4)sc3n2)cc1 (centres unmarked) [Compound Z522-0233, 6-(4-isopropylphenyl)-2-(4-{[2-(2-piperidin-1-ylethyl)piperidin-1-yl]carbonyl}piperidin-1-yl)imidazo[2,1-b][1,3,4]thiadiazole]",1,0,1,,,3,,0
"CC(C)c1ccc(-c2cn3nc(N4CCC(C(=O)N5CCCC(CN6CCOCC6)C5)CC4)sc3n2)cc1 (centres unmarked) [Compound Z522-0237, 6-(4-isopropyl-phenyl)-2-(4-{[3-(morpholin-4-yl-methyl)piperidin-1-yl]carbonyl}piperidin-1-yl)imidazo[2,1-b][1,3,4]thiadiazole]",13,8,74,89,82,105,11,8
"CC(C)c1ccc(-c2cn3nc(N4CCC(C(=O)N5CCN(CC(=O)N6CCN(C)CC6)CC5)CC4)sc3n2)cc1 [Compound Z522-0238, 6-(4-isopropylphenyl)-2-[4-({4-[2-(4-methylpiperazin-1-yl)-2-oxoethyl]piperazin-1-yl}carbonyl)piperidin-1-yl]imidazo[2,1-b][1,3,4]thiadiazole]",6,7,54,49,85,99,1,3
"CC(C)c1ccc(-c2cn3nc(N4CCC(C(=O)N(C)CC(=O)NCCN(C)C)CC4)sc3n2)cc1 [Compound Z522-0239, N^4-(2-[2-(dimethylamino)ethyl]amino-2-oxoethyl)-1-[6-(4-isopropylphenyl)imidazo[2,1-b][1,3,4]thiadiazol-2-yl]-N^4-methyl-4-piperidinecarboxamide]",3,2,80,45,83,96,1,1
"CC(C)c1ccc(-c2cn3nc(N4CCC(C(=O)N(C)CC(=O)N5CCN(C)CC5)CC4)sc3n2)cc1 [Compound Z522-0240, 1-[6-(4-isopropylphenyl)imidazo[2,1-b][1,3,4]thiadiazol-2-yl]-N^4-methyl-N^4-[2-(4-methyl-piperazino)-2-oxoethyl]-4-piperidinecarboxamide]",50,53,82,68,80,101,19,15
"CC(C)c1ccc(-c2cn3nc(N4CCC(C(=O)N5CCN(CC(=O)NCCN(C)C)CC5)CC4)sc3n2)cc1 [Compound Z522-0241, N-[2-(dimethylamino)ethyl]-2-[4-({1-[6-(4-isopropylphenyl)imidazo[2,1-b][1,3,4]thiadiazol-2-yl]piperidin-4-yl}carbonyl)piperazin-1-yl]acetamide]",0,0,33,36,78,88,,0
"CC(C)c1ccc(-c2cn3nc(N4CCC(C(=O)N5CCCN(c6ncccn6)CC5)CC4)sc3n2)cc1 [Compound Z522-0242, 6-(4-isopropylphenyl)-2-{4-[(4-pyrimidin-2-yl-1,4-diazepan-1-yl)carbonyl]piperidin-1-yl}imidazo[2,1-b][1,3,4]thiadiazole]",72,66,88,86,89,123,55,50
